Patent US10533018B2, “Antimicrobial prochelators to target drug-resistant bacteria and methods of making and using the same” (Duke University, priority 2015, dated 2020)

Key:
[1] = test system: Methicillin-Resistant Staphylococcus aureus (MRSA); assay: microbe, parasite or virus in culture; type: cell-based
Text: (§1) Bacterial culture reagents including LB broth (Lennox), agar-agar, ampicillin, and ceftriaxone were purchased from Sigma Aldrich Corp. The Escherichia coli (E. coli) K12 strain HB101 and pGLO E. coli transformation kit purchased from Bio-Rad Laboratories Inc. HB101 was transformed with the bla gene via the pGLO plasmid. The bla gene encodes for a TEM-1 β-lactamase that imparts penicillin resistance to the mutant E. coli K-12 strain (+Bla). Strains E. coli UTI89, [27] pCOM-GFP-transformed E. coli UTI89 (pCOM-GFP), [28] and Methicillin-Resistant Staphylococcus aureus (MRSA) clone USA300 [29] have been previously described. The Extended-Spectrum β-Lactamase (ESBL) E. coli, Klebsiella pneumonia (Klebs), and Pseudomonas aeruginosa (Pseudo) strains were clinical isolates acquired deidentified from Duke Hospital and tested for antibiotic susceptibility in the Clinical Microbiology Laboratory using standard clinical susceptibility methods.
(§2) Cultures were incubated on LB (Lennox, Sigma) agar at 37° C. in ambient atmospheric composition. Before beginning an experiment, a single bacterial colony grown on LB agar was resuspended in 2 mL LB broth and incubated overnight to form a turbid cell suspension. The overnight culture was diluted 1:100 in LB and used immediately as the working culture. To assess the antibacterial activity of compounds, the working bacterial culture was aliquoted in a clear, flat-bottomed, 96-well polystyrene plate (Costar) and the compound of interest was added in 2-fold serial dilution from 500 to 1 μM. Plates were covered with a breathable sealing film (Aeroseal, Genesee Scientific) and incubated at 37° C. in ambient atmospheric composition with shaking at 200 rpm. Optical density at 600 nm was recorded after 4 h and 20 h for each well using a standard OD600 protocol with LB serving as the blank. The resulting dose-response curves were fit to a nonlinear regression in GraphPad Prism Version 6 to calculate the IC50 of DB4-51 in each strain.
The ability of DB4-162 to inhibit bacterial growth was assessed by a traditional broth microdilution method that assesses the turbidity of liquid cultures in the presence of varying concentrations of the compound. As described above for DB4-51, the antibacterial properties of the prochelator DB4-162 were assessed in non-pathogenic lab-strain HB101K-12 E. coli and compared to the pGLO-transfected mutant HB101K-12 E. coli that express β-lactamase. Clinically relevant pathogenic bacteria were also screened, including UTI89 E. coli, pCOM transfected UTI89 E. coli (pCOM), extended spectrum β-lactamase (ESBL) E. coli, methicillin-resistant Staphylococcus aureus (MRSA), and Klebsiella pneumonia (Klebs). In addition to being naturally resistant to many β-lactam antibiotics, MRSA can produce a number of β-lactamases. […] It should be noted that all of the bacteria tested are gram-negative except for gram-positive MRSA.
The goal of this screen was to calculate the IC50 of the prochelator in a series of pathogenic bacteria and compare these values to the IC50 of known antibiotics in those same strains to determine the relative effectiveness of DB4-162 against the drug-resistant and drug-susceptible bacteria in comparison to current antibiotic treatment options. Bacterial growth was monitored in LB broth at 37° C. in the presence and absence of DB4-162 for 20 hours. A concentration gradient of DB4-162 from 500 to 0 μM was used to screen all 7 strains of bacteria and the dose-response curves were fit to a […] to calculate the IC50 of DB4-162 in each strain. These IC50 values are an approximation of how effectively DB4-162 inhibits the growth of each bacterial strain in vitro.
IC50 values for ampicillin were calculated via broth microdilution in LB broth only. Values are listed as the mean followed by the 95% confidence interval about the mean. Mean and confidence intervals were calculated from a variable slope, nonlinear regression fit to the dose-response OD600 data. […]

[2] = test system: susceptible E. coli HB101 K-12 (no β-lactamase); assay: Broth microdilution (preliminary, Table 1), susceptible K-12; type: cell-based, Escherichia coli; conditions: for IC50: Escherichia coli, Susceptable K-12 E. coli, LB, OD600, preliminary results
Protocol: In order to determine the antibiotic activity of DB4-51, a debilitated strain of Escherichia coli (HB101 K-12) was transformed with the pGLO plasmid from Bio-Rad in order to express β-lactamase. This transformation was confirmed by growing on a selective medium containing 100 μg/ml ampicillin in Lennox LB with 1.5% agar. A broth microdilution assay was employed to determine the relative activity of DB4-51 against susceptible (HB 101 K-12, no β-lactamase) and resistant (HB 101 K-12 transformed to express β-lactamase) E. coli. Using Lennox LB as the medium. serial dilutions of the test compounds were performed in a 96-well plate and then inoculated with E. coli before incubating for 16-20 hours at 35° C. The bacterial growth was monitored by recording each well's absorbance at 600 nm (OD600.) The OD600 values of E. coli suspensions incubated with various compounds were compared in order to assess their activities.
FIG. 7: OD600 of susceptible and resistant K-12 E. coli cultures against DB4-51 and known antibiotics as a function of concentration. Ampicillin has a penicillin core and cephalexin has a cephalosporin core. Cultures were grown in LB broth at 37° C. while shaking at 200 rpm for 18 hours and then diluted to an OD600 of 0.005 before adding the compounds. Plates were grown at 35° C. while shaking at 200 rpm and the OD600 was recorded after 18 hours.
Table 1: Calculated IC50 values for DB4-51, cephalexin, ampicillin, and pyrithione. These values were derived by fitting the data to a log dose-response curve and reporting the concentration corresponding to half the maximum OD600 value for each compound.

[3] = test system: clinical isolates of Klebsiella pneumonia (Klebs); assay: Broth microdilution in Klebs clinical isolates; type: cell-based; conditions: Klebsiella pneumoniae, LB broth
Text: as §1, §2

[4] = test system: CCD-19Lu human lung fibroblast cells
Protocol: CellTox Green LDH Cytotoxicity Detection Kit was purchased from Promega. Cell lines were purchased from the ATCC. All work was performed in a laminar-flow hood using sterile techniques. […] After splitting and counting, black, clear bottom 96-well plates were seeded at a density of 15,000 cells/well and incubated overnight at 37° C. in a fully humidified atmosphere containing 5% CO2. […] Untreated cells served as the negative control while wells containing untreated cells incubated with 1% Triton X-100 served as the positive control.
Using a cytotoxicity assay, the viability of mammalian cells was monitored as a function of their membrane integrity.

[5] = Staphylococcus aureus, LB + 500 μM BCS

Structure (SMILES): Cc1csc(=S)n1OCC1=C(C(=O)O)N2C(=O)[C@@H](NC(=O)Cc3ccccc3)[C@H]2SC1 [DB4-162, (6R,7R)-3-(((4-methyl-2-thioxothiazol-3(2H)-yl)oxy)methyl)-8-oxo-7-(2-phenylacetamido)-5-thia-1-azabicyclo[4.2.0]oct-2-ene-2-carboxylic acid]
- IC50 ([1]; Staphylococcus aureus, LB + 10 μM CuCl2): 2.7 µM
- IC50 [1, 5]: 2.4 µM
- IC50 ([1]; Staphylococcus aureus, LB broth): 2.4 µM

Structure (SMILES): [O-][n+]1ccccc1S [PT, 2-mercaptopyridine N-oxide]
- IC50 [2]: < 18 µM
- IC50 ([3]; Klebs Isolate 1): 10 µM
- IC50 ([3]; Klebs Isolate 2): 5 µM
- IC50 ([3]; Klebs Isolate 3): 21 µM
- IC50 ([3]; Klebs Isolate 4): 9 µM
- IC50 ([3]; Klebs Isolate 5): 11 µM
- IC50 ([3]; Klebs Isolate 6): 6 µM
- IC50 ([3]; Klebs Isolate 7): 10 µM
- IC50 ([3]; Klebs Isolate 8): 10 µM
- IC50 ([3]; Klebs Isolate 9): 9 µM
- IC50 ([3]; Klebs Isolate 10): 5 µM
- IC50 ([3]; Klebs Isolate 11): 6.5 µM
- IC50 ([3]; Klebs Isolate 12): 8 µM
- IC50 ([3]; Klebs Isolate 13): 11 µM
- IC50 [1, 5]: 0.011 µM
- cell death ([4]; concentrations below 500 μM, 24 hour): ≤ 50%

Structure (SMILES): CC1(C)S[C@@H]2[C@H](NC(=O)[C@H](N)c3ccccc3)C(=O)N2[C@H]1C(=O)O [Ampicillin]
- IC50 [2]: < 18 µM
- activity against susceptible strain (FIG. 7) ([2]; susceptible strain of E. coli): very active
- IC50 ([3]; Klebs Isolate 1): 142 µM
- IC50 ([3]; Klebs Isolate 2): > 500 µM
- IC50 ([3]; Klebs Isolate 3): 55 µM
- IC50 ([3]; Klebs Isolate 4): > 500 µM
- IC50 ([3]; Klebs Isolate 5): 175 µM
- IC50 ([3]; Klebs Isolate 6): 118 µM
- IC50 ([3]; Klebs Isolate 7): > 500 µM
- IC50 ([3]; Klebs Isolate 8): > 500 µM
- IC50 ([3]; Klebs Isolate 9): > 500 µM
- IC50 ([3]; Klebs Isolate 10): > 500 µM
- IC50 ([3]; Klebs Isolate 11): 251 µM
- IC50 ([3]; Klebs Isolate 12): 112 µM
- IC50 ([3]; Klebs Isolate 13): > 500 µM
- IC50 ([1]; LB broth): > 250 µM

Structure (SMILES): O=C(Cc1ccccc1)N[C@@H]1C(=O)N2C(C(=O)O)=C(CSc3cccc[n+]3[O-])CS[C@H]12 [DB4-51, 2-((((6R,7R)-2-carboxy-8-oxo-7-(2-phenylacetamido)-5-thia-1-azabicyclo[4.2.0]oct-2-en-3-yl)methyl)thio)pyridine 1-oxide]
- IC50 [2]: 80 µM
- IC50 ([3]; Klebs Isolate 1): 25 µM
- IC50 ([3]; Klebs Isolate 2): 45 µM
- IC50 ([3]; Klebs Isolate 3): 163 µM
- IC50 ([3]; Klebs Isolate 4): 133 µM
- IC50 ([3]; Klebs Isolate 5): 49 µM
- IC50 ([3]; Klebs Isolate 6): 47 µM
- IC50 ([3]; Klebs Isolate 7): 9 µM
- IC50 ([3]; Klebs Isolate 8): 30 µM
- IC50 ([3]; Klebs Isolate 9): 10 µM
- IC50 ([3]; Klebs Isolate 10): 150 µM
- IC50 ([3]; Klebs Isolate 11): 34 µM
- IC50 ([3]; Klebs Isolate 12): 52 µM
- IC50 ([3]; Klebs Isolate 13): > 500 µM
- change in IC50 value as a function of Cu availability ([1]; Cu-replete vs Cu-limited): 55 fold
- LD50 ([4]; 24 h): > 500 µM
- cytotoxicity ([4]; below 250 μM, 24 h): non-toxic
